Five molecules from patent US20220174947A1, “ANTIMICROBIAL MIXTURE CONTAINING 4-(3-ETHOXY-4-HYDROXYPHENYL)BUTAN-2-ONE AND AN ALCOHOL COMPOUND, AND COSMETIC COMPOSITION CONTAINING SAME” (L'OREAL, priority 2018, published 2022) can be followed below.

Experiment in all cases: Synergistic antimicrobial activity as MIC, 96-well microplate, optical density at 620 nm
Holding throughout (format): cell-based
Holding throughout (settings): for microbial growth percentage: 0 A

The test system of test [1] is Aspergillus niger ATCC 6275. The source says:
(§1) FIC Index=(MIC of A with B/MIC of A)+(MIC of B with A/MIC of B [Math. 1]
(§2) with: • MIC of A with B: minimum concentration of product A in the combination A+B which makes it possible to obtain an inhibitory effect; • MIC of B with A: minimum concentration of product B in the combination A+B which makes it possible to obtain an inhibitory effect; • MIC of A: minimum inhibitory concentration of product A alone; • MIC of B: minimum inhibitory concentration of product B alone. This formula was described for the first time in the article by F. C. Kull, P. C. Eisman, H. D. Sylwestrowka, and R. L. Mayer, Applied Microbiology 9:538-541, 1961.
The microbial strain Aspergillus niger ATCC 6275, and a double-concentration Sabouraud broth liquid culture medium supplemented with polyoxyethylenated (20 OE) sorbitan monopalmitate (Tween 40 from Croda) and Phytagel© BioReagent were used (i.e. a mixture of 5 g of Phytagel+0.6 g of Tween 40+60 g of Sabouraud broth).
(§3) A 96-well microplate at an incubation temperature of 32.5° C. is used.
(§4) The incubation time of the microplate is: • from 24 to 30 h under aerobic conditions for microbial Aspergillus niger ATCC 6275; • from 18 to 24 h under aerobic conditions for Candida albicans ATCC 10231, Pseudomonas aeruginosa ATCC 9027 and Staphylococcus aureus ATCC 6538; • from 24 to 48 h under aerobic conditions for Enterococcus faecalis ATCC 33186.
(§5) For each compound: A=4-(3-ethoxy-4-hydroxyphenyl) butan-2-one compound B=alcohol compound A 10% (weight/volume) stock solution was prepared by mixing 1 g of compound in 9 ml of aqueous 1% agar solution. Successive dilutions were made with the 1% agar solution.
(§6) 50 μl of each of the daughter solutions obtained containing compound A or B are added to the microplate wells. 100 μl of Sabouraud liquid nutrient broth inoculated at double concentration with the Aspergillus niger strain and 50 μl of aqueous 1% agar solution are also added thereto.
(§7) 50 μl of each of the daughter solutions obtained containing compound A and 50 μl of each of the daughter solutions obtained containing compound B are added to the microplate wells. 100 μl of Sabouraud liquid nutrient broth inoculated at double concentration with the strain Aspergillus niger are also added thereto.
(§8) A positive microbial growth control was also prepared. The positive microbial growth control corresponds to a mixture of 100 μl of aqueous 1% agar solution with 100 μl of Sabouraud liquid nutrient broth inoculated at double concentration with the strain Aspergillus niger in the absence of compounds A and B.
(§9) An absorbance control was performed in parallel on compounds A and B alone. This control corresponds to 100 μl of double concentration sterile Sabouraud liquid nutrient broth+100 μl of double concentration compound A or B.
(§10) In the three cases (absorbance control, growth control and test), the final volume present in each of the microplate wells is 200 μl.
In the two cases (test and control), the inoculum represents the concentration of the Aspergillus niger strain present in the final volume of the wells (200 μl) and is between 2 and 6×10^5 cfu/ml of Aspergillus niger.

Test [2] deals with Candida albicans ATCC 10231. From the text:
with: • MIC of A with B: minimum concentration of product A in the combination A+B which makes it possible to obtain an inhibitory effect; • MIC of B with A: minimum concentration of product B in the combination A+B which makes it possible to obtain an inhibitory effect; • MIC of A: minimum inhibitory concentration of product A alone; • MIC of B: minimum inhibitory concentration of product B alone. This formula was described for the first time in the article by F. C. Kull, […], and R. L. Mayer, Applied Microbiology 9:538-541, 1961. […] When the FIC index value is less than or equal to 1, it is considered that the combination of test compounds has a synergistic effect. […] A 96-well microplate at an incubation temperature of 32.5° C. is used. […] For each compound: […] 50 μl of each of the daughter solutions obtained containing compound A and 50 μl of each of the daughter solutions obtained containing compound B are added to the microplate wells. 100 μl of Sabouraud liquid nutrient broth inoculated at double concentration with the strain Aspergillus niger are also added thereto. A positive microbial growth control was also prepared. […] An absorbance control was performed in parallel on compounds A and B alone. This control corresponds to 100 μl of double concentration sterile Sabouraud liquid nutrient broth+100 μl of double concentration compound A or B. […] The test as described above (tests, absorbance control and growth control) was performed again to test the combination A+B on the following strains Enterococcus faecalis, Staphylococcus aureus, Pseudomonas aeruginosa, Candida albicans, where appropriate.

Test [3] deals with Enterococcus faecalis ATCC 33186.
Excerpt: as §1, §2
The microbial strain Enterococcus faecalis ATCC 33186 and a double-concentration BHI (Brain Heart Infusion) broth liquid culture medium were used.
as §3, §4, §5, §6, §7, §8, §9, §10
(§11) The test as described above (tests, absorbance control and growth control) was performed again to test the combination A+B on the following strains Enterococcus faecalis, Staphylococcus aureus, Pseudomonas aeruginosa, Candida albicans, where appropriate.

The subject of test [4] is Staphylococcus aureus ATCC 6538.
Excerpt: as §1, §2
The microbial strain Staphylococcus aureus ATCC 6538 and a double-concentration nutrient broth liquid culture medium were used.
as §3, §4, §5, §6, §7, §8, §9, §10, §11

Test [5] deals with Pseudomonas aeruginosa ATCC 9027. The source says:
with: • MIC of A with B: minimum concentration of product A in the combination A+B which makes it possible to obtain an inhibitory effect; • MIC of B with A: minimum concentration of product B in the combination A+B which makes it possible to obtain an inhibitory effect; • MIC of A: minimum inhibitory concentration of product A alone; • MIC of B: minimum inhibitory concentration of product B alone. This formula was described for the first time in the article by F. C. Kull, […], and R. L. Mayer, Applied Microbiology 9:538-541, 1961. […] When the FIC index value is less than or equal to 1, it is considered that the combination of test compounds has a synergistic effect. The microbial strain Pseudomonas aeruginosa ATCC 9027 and a double-concentration nutrient broth liquid culture medium were used. A 96-well microplate at an incubation temperature of 32.5° C. is used. […] For each compound: […] 50 μl of each of the daughter solutions obtained containing compound A and 50 μl of each of the daughter solutions obtained containing compound B are added to the microplate wells. 100 μl of Sabouraud liquid nutrient broth inoculated at double concentration with the strain Aspergillus niger are also added thereto. A positive microbial growth control was also prepared. […] An absorbance control was performed in parallel on compounds A and B alone. This control corresponds to 100 μl of double concentration sterile Sabouraud liquid nutrient broth+100 μl of double concentration compound A or B. […] The test as described above (tests, absorbance control and growth control) was performed again to test the combination A+B on the following strains Enterococcus faecalis, Staphylococcus aureus, Pseudomonas aeruginosa, Candida albicans, where appropriate.

[6] abbreviates: Aspergillus niger, growth <= 25%.
Setting [7] is: Enterococcus faecalis, growth <= 25%.
Where [8] appears, read: Staphylococcus aureus, growth <= 25%.

As for `CC(=O)c1ccc(O)cc1` [B1, 4-hydroxyacetophenone], the microbial growth percentage in test [1] (0.0625 B1 weight %) is 86%; in test [1] (0.125 B1 weight %), 72%; in test [1] (0.25 B1 weight %), 79%; in test [1] (0.5 B1 weight %), 6%. The “% MIC of B1 alone” value in test [1] (setting [6]) stood at 0.5%.
As for `Cc1cc(O)cc(C)c1Cl` [B5, 4-chloro-3,5-dimethylphenol], the microbial growth percentage is on record as 73% in test [2] (0.0625 B5 weight %); 28% in test [2] (0.125 B5 weight %); 1% in test [2] (0.25 B5 weight %); 99% in test [1] (0.0625 B5 weight %); 103% in test [1] (0.125 B5 weight %); 31% in test [1] (0.25 B5 weight %). Also, the microbial growth percentage in test [1] (0.5 B5 weight %) is listed as −6%. Moreover, the “% MIC of B5 alone” value in test [2] (Candida albicans, growth <= 25%) came out at 0.25%; in test [1] (setting [6]), 0.5%.
Turning to sorbitan caprylate [B3], the microbial growth percentage turned out to be 134% in test [3] (0.125 B3 weight %); 61% in test [3] (0.25 B3 weight %); 62% in test [3] (0.5 B3 weight %); 2% in test [3] (1 B3 weight %); 50% in test [1] (0.025 B3 weight %); 30% in test [1] (0.05 B3 weight %). For the same molecule, the microbial growth percentage in test [1] (0.1 B3 weight %) is reported as −2%. For the same molecule, the figures for the “% MIC of B3 alone” value in test [3] (setting [7]) and in test [1] (setting [6]) were 1% and 0.1%, respectively.
In the case of `Oc1cc(Cl)ccc1Oc1ccc(Cl)cc1Cl` [B2, 5-chloro-2-(2,4-dichlorophenoxy)phenol], the microbial growth percentage in test [4] (0.125 B2 weight %) is 46%; in test [4] (0.25 B2 weight %), 14%. Also, the “% MIC of B2 alone” value in test [4] (setting [8]) stood at 0.25%.
With `CCCCCCCC(=O)OCC(O)CO` (centres unmarked) [B6, glyceryl caprylate], the microbial growth percentage is reported as 123% in test [5] (0.1 B6 weight %); 109% in test [5] (0.2 B6 weight %); −40% in test [5] (0.4 B6 weight %); 57% in test [3] (0.125 B6 weight %); 22% in test [3] (0.25 B6 weight %); 8% in test [3] (0.5 B6 weight %). Further, the microbial growth percentage in test [3] (0.625 B6 weight %) came to 38%; in test [4] (0.0625 B6 weight %) it was 83%; in test [4] (0.125 B6 weight %) it was 87%; in test [4] (0.25 B6 weight %), 53%; in test [4] (0.5 B6 weight %), 48%; in test [4] (1 B6 weight %), 9%. Also, the “% MIC of B6 alone” value in test [5] (Pseudomonas aeruginosa, growth <= 25%) is 0.4%; in test [3] (setting [7]), 0.5%; in test [4] (setting [8]), 1%.
